# In ChEMBL document CHEMBL5523759, “Discovery of Novel HDAC3 Inhibitors with PD-L1 Downregulating/Degrading and Antitumor Immune Effects” (J Med Chem, 2024):
# Active and inactive are the calls of the source. The rule behind the calls is not given here.
# Legend:
# [1] = Apparent volume of distribution in Sprague-Dawley rat at 20 mg/kg, po measured up to 12 hrs by LC-MS/MS analysis; format: ADME, organism-based; settings: in vivo
# [2] = Tmax in Sprague-Dawley rat at 20 mg/kg, po measured up to 12 hrs by LC-MS/MS analysis; format: ADME, organism-based; settings: in vivo
# [3] = Cmax in Sprague-Dawley rat at 2 mg/kg, iv measured up to 12 hrs by LC-MS/MS analysis; format: ADME, organism-based; settings: in vivo
# [4] = Metabolic stability in mouse liver microsome assessed as half life; format: ADME; settings: liver microsomes
# [5] = Clearance in Sprague-Dawley rat at 20 mg/kg, po measured up to 12 hrs by LC-MS/MS analysis; format: ADME, organism-based; settings: in vivo
# [6] = Toxicity in C57BL/6 mouse implanted with mouse B16-F10 cells assessed as heart damage at 25 mg/kg, po administered for 9 days by H and E staining based analysis; format: organism-based; settings: in vivo, 216 h, time 9 day
# [7] = molecular target: Programmed cell death 1 ligand 1 (Mus musculus) (UniProt Q9EP73); assay: Induction of PD-L1 degradation in mouse B16-F10 cells at 10 uM measured for 24 hrs by Western blot analysis relative to control; format: cell-based
# Histone deacetylase 7 = molecular target: T1, Histone deacetylase 7 (Homo sapiens, UniProt Q8WUI4); assay: Inhibition of human recombinant HDAC7 using Ac-Leu-Gly-Lys (Tfa)-AMC as substrate preincubated with compound for 10 mins followed by substrate addition and measured after 45 mins by TECAN microtiter plate reader analysis
# T1 sequence (Q8WUI4 whole entry): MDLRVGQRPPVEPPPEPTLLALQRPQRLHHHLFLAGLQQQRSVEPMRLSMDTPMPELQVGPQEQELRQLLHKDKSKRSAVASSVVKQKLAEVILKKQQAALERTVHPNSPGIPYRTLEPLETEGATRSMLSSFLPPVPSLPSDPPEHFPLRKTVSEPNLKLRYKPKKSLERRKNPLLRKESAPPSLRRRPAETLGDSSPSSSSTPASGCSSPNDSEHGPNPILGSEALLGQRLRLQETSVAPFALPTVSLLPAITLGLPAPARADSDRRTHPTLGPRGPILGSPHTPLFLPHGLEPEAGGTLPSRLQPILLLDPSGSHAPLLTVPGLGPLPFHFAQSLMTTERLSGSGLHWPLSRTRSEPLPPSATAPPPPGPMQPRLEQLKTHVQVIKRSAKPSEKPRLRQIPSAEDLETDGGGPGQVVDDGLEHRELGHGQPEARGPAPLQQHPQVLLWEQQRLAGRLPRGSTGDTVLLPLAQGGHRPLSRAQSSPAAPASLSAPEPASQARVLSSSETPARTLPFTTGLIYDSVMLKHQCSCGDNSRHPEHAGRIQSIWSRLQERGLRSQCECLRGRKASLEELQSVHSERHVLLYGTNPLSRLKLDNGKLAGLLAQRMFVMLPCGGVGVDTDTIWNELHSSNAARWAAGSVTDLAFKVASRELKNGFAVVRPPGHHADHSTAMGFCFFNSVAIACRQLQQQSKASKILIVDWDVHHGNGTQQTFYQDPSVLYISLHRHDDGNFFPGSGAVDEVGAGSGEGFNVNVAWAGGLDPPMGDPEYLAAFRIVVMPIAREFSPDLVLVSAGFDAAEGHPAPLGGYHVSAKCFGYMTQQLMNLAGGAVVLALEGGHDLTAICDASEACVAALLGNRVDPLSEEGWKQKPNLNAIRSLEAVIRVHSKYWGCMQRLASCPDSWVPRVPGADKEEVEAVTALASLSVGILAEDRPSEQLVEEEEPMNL
# [8] = MRT (0 to infinity) in Sprague-Dawley rat at 2 mg/kg, iv measured up to 12 hrs by LC-MS/MS analysis; format: ADME, organism-based; settings: in vivo
# [9] = Metabolic stability in mouse liver microsome assessed as parent compound remaining measured at 45 mins; format: ADME; settings: liver microsomes, read-out: Stability
# [10] = Metabolic stability in rat liver microsome assessed as parent compound remaining measured immediately; format: ADME; settings: liver microsomes, read-out: Stability
# [11] = MRT (0 to t) in Sprague-Dawley rat at 20 mg/kg, po measured up to 12 hrs by LC-MS/MS analysis; format: ADME, organism-based; settings: in vivo
# [12] = molecular target: Programmed cell death 1 ligand 1 (Mus musculus) (UniProt Q9EP73); assay: Induction of PD-L1 degradation in mouse B16-F10 cells 0.5 to 10 uM measured for 4 hrs in presence of MG132 by Western blot analysis; format: cell-based; settings: dose 0.5-10 µM
# B16-F10 [13] = assay: Antitumor activity against mouse B16-F10 cells implanted in C57BL/6 mouse model assessed as decrease in PD-L1 level at 25 mg/kg, po administered for 9 days by Western blot analysis; format: functional, organism-based; settings: time 9.0 day
# B16-F10 [14] = assay: Antitumor activity against mouse B16-F10 cells implanted in C57BL/6 mouse model assessed as increase in Ac-H3 expression in tumor at 25 mg/kg, po administered for 9 days by Western blot analysis; format: functional, organism-based; settings: time 9.0 day
# [15] = Metabolic stability in mouse liver microsome assessed as parent compound remaining measured at 30 mins; format: ADME; settings: liver microsomes, read-out: Stability
# [16] = MRT (0 to t) in Sprague-Dawley rat at 2 mg/kg, iv measured up to 12 hrs by LC-MS/MS analysis; format: ADME, organism-based; settings: in vivo
# [17] = Clearance in Sprague-Dawley rat at 2 mg/kg, iv measured up to 12 hrs by LC-MS/MS analysis; format: ADME, organism-based; settings: in vivo
# [18] = molecular target: Programmed cell death 1 ligand 1 (Mus musculus) (UniProt Q9EP73); assay: Induction of PD-L1 degradation in mouse B16-F10 cells assessed as upregulation of CTSB level at 1 to 4 uM measured for 4 hrs in presence of CA-074 by Western blot analysis; format: cell-based; settings: dose 1-4 µM
# [19] = Half life in Sprague-Dawley rat at 20 mg/kg, po measured up to 12 hrs by LC-MS/MS analysis; format: ADME, organism-based; settings: in vivo
# [20] = Half life in Sprague-Dawley rat at 2 mg/kg, iv measured up to 12 hrs by LC-MS/MS analysis; format: ADME, organism-based; settings: in vivo
# B16-F10 [21] = assay: Antitumor activity against mouse B16-F10 cells implanted in C57BL/6 mouse model assessed as upregulation of Ac-H3 expression at 25 mg/kg, po administered for 9 days by Western blot analysis; format: functional, organism-based; settings: time 9.0 day
# [22] = Metabolic stability in mouse liver microsome assessed as parent compound remaining measured at 5 mins; format: ADME; settings: liver microsomes, read-out: Stability
# B16-F10 [23] = assay: Antitumor immunity against mouse B16-F10 cells implanted in C57BL/6 mouse model assessed as increase in CD3+ CD8+ T cells at 25 mg/kg, po administered for 9 days (reference value: 1.01%); format: functional; settings: time 9 day
# [24] = molecular target: Programmed cell death 1 ligand 1 (Mus musculus, UniProt Q9EP73); assay: Induction of PD-L1 degradation in mouse B16-F10 cells measured for 24 hrs by Western blot analysis; format: cell-based
# [25] = Apparent volume of distribution in Sprague-Dawley rat at 2 mg/kg, iv measured up to 12 hrs by LC-MS/MS analysis; format: ADME, organism-based; settings: in vivo, read-out: Vz
# [26] = Oral bioavailability in Sprague-Dawley rat at 20 mg/kg measured up to 12 hrs by LC-MS/MS analysis; format: ADME, organism-based; settings: in vivo
# B16-F10 [27] = assay: Antitumor activity against mouse B16-F10 cells implanted in C57BL/6 mouse model assessed as […] in Ac-H3 expression in tumor at 25 mg/kg, po administered for 9 days by immunofluorescence analysis; format: functional, organism-based; settings: time 9.0 day
# Programmed cell death 1 ligand 1 (Mus musculus), sequence (Q9EP73 whole entry): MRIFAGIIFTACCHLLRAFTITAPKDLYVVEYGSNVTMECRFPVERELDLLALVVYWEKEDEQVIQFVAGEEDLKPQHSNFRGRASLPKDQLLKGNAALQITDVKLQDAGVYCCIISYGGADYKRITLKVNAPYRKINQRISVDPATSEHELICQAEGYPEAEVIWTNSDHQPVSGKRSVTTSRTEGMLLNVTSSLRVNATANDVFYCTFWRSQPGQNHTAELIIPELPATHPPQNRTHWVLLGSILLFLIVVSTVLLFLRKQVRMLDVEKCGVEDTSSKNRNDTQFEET
# Programmed cell death 1 ligand 1, sequence (Q9EP73 whole entry): as above
smiles,measurement,setting,value
CCCNNC(=O)c1ccc(CNC(=O)c2ncc(CNc3ccccc3)s2)cc1,Vz,[1],34.45 L/kg
same,Tmax,[2],30 min
same,Cmax,[3],725 ng/mL
same,half-life,[4],9.69 min
same,CL/F,[5],121 mL/min/kg
same,Activity,[6],Non-Toxic
same,Emax,[7],80%
same,IC50,Histone deacetylase 7,> 10 µM
same,MRT inf,[8],33 min
same,remaining at 0.75 h,[9],4.03%
same,remaining at 0 min,[10],100%
same,MRT last at 12 h,[11],191 min
same,Activity,[12],Active
same,Activity,B16-F10 [13],Active
same,Activity,B16-F10 [14],Active
same,remaining at 0.5 h,[15],11.3%
same,MRT last at 12 h,[16],31.2 min
same,clearance,[17],64.5 mL/min/kg
same,Activity,[18],Active
same,half-life,[19],216 min
same,half-life,[20],24 min
same,Activity,B16-F10 [21],Active
same,remaining at 5 min,[22],70.4%
same,Activity,B16-F10 [23],3.7%
same,DC50,[24],5.7 µM
same,Vd,[25],2.21 L/kg
same,bioavailability,[26],57%
same,Activity,B16-F10 [27],Active
Nc1ccccc1NC(=O)c1ccc(-c2ncc(CNc3ccccc3)s2)cc1,IC50,Histone deacetylase 7,> 10 µM
